According to patent publication US7572818B2, “2-pyridylethylbenzamide derivative” (Bayer Cropscience S.A., priority 2002, dated 2009):

Columns and labels:
Alternaria brassicae = experiment: In vivo test of activity on Alternaria brassicae (crucifer black spot) on radish; conditions: preventive spray 24 h before inoculation
Method: In Vivo Test of Activity on Alternaria brassicae (Crucifer Black Spot)
(§1) An aqueous solution of the active material to be tested is prepared at a concentration of 2 g/l by grinding in solution 1 or solution 2:
(§2) • Water • Tween 80 diluted to 10% in water: 5 μl/mg of active material • Clay in a sufficient amount for active material+clay to equal 100 mg; Solution 2
(§3) Concentrated solution containing surfactants and adjuvants conventionally used: 200 μl/mg of active material.
(§4) The aqueous solution is diluted with water so as to obtain the desired concentration.
Radishes of the Pernot variety are sown in a 50/50 pozzolan/peat substrate and maintained at 18-22° C. The treatment is carried out by spraying the aqueous suspension. The untreated control plants are sprayed with water. 24 hours after treatment, the plants are inoculated by spraying a solution of Alternaria brassicae spores (40 000 spores/ml) originating from a 12-day culture.
The radish plants are then maintained at 18-20° C. in a humid atmosphere. The effectiveness of the products is evaluated relative to the control plants after seven to eight days of incubation.
(§5) The effectiveness of the molecules is estimated, at 500 g/ha, 250 g/ha or 330 ppm, by the percentage of control relative to untreated plants. Under these conditions, good effectiveness is defined as more than 80% effectiveness. Average effectiveness is defined as an effectiveness between 50 and 80%. Poor effectiveness is defined as an effectiveness between 10 and 50% and zero effectiveness is defined as less than 10% effectiveness.

Botrytis cinerea = experiment: In vivo test of activity on Botrytis cinerea on cucumber; conditions: preventive spray 24 h before inoculation
Method: In Vivo Test of Activity on Botrytis cinerea on Cucumber
as §1, §2, §3, §4
Cucumbers of the Marketer variety are sown in a 50/50 pozzolan/peat substrate and maintained at 18-22° C. The treatment is carried out by spraying the aqueous suspension. The untreated control plants are sprayed with water.
24 hours after treatment, the plants are inoculated by spraying a solution of Botrytis cinerea spores (150 000 spores/ml) originating from a 15-day culture.
The cucumber plants are then maintained at 11-15° C. in a humid atmosphere. The effectiveness of the products is evaluated relative to the control plants after seven to eight days of incubation.
as §5

Pyrenophora teres = experiment: In vivo test of activity on Pyrenophora teres (barley net blotch); conditions: preventive spray 24 h before inoculation
Method: In Vivo Test of Activity on Pyrenophora teres (Barley Net Blotch)
as §1, §2, §3, §4
Barley plants of the Express variety are sown in a 50/50 pozzolan/peat substrate and maintained at 12° C. The treatment is carried out at the 1-leaf stage (10 cm) by spraying the aqueous suspension. The untreated control plants are sprayed with water.
24 hours after treatment, the plants are inoculated by spraying a solution of Pyrenophora teres spores (10 000 spores/ml) originating from a 10-day culture.
The barley plants are then maintained at 18° C. in a humid atmosphere. The effectiveness of the products is evaluated relative to the control plants after eight to fifteen days of incubation.
as §5

Septoria tritici = experiment: In vivo test of activity on Septoria tritici (wheat septoria disease); conditions: 500 g/ha, preventive spray 24 h before inoculation
Method: In Vivo Test of Activity on Septoria tritici (Wheat Septoria Disease
as §1, §2, §3, §4
Wheat plants of the Scipion variety are sown in a 50/50 pozzolan/peat substrate and maintained at 12° C. The treatment is carried out at the 1-leaf stage (10 cm) by spraying the aqueous suspension. The untreated control plants are sprayed with water.
24 hours after treatment, the plants are inoculated by spraying a solution of Septoria tritici spores (500 000 spores/ml) from a 7-day culture.
The wheat plantlets are then maintained at 18-20° C. in a humid atmosphere for 72 hours, and then at 90% relative humidity. The effectiveness of the products is evaluated relative to the control plants, 21 to 28 days after the contamination.
as §5

Measured: effectiveness (percentage of control relative to untreated plants)

O=C(NCCc1ncc(C(F)(F)F)cc1Cl)c1ccccc1Cl [Compound A-2]
good to average: Alternaria brassicae; 500 g/ha | Botrytis cinerea; 500 g/ha | Pyrenophora teres; 500 g/ha | Septoria tritici

O=C(NCCc1ncc(C(F)(F)F)cc1Cl)c1ccccc1F [Compound A-4]
good to average: Alternaria brassicae; 500 g/ha | Pyrenophora teres; 500 g/ha | Septoria tritici

O=C(NCCc1ncc(C(F)(F)F)cc1Cl)c1ccc(F)cc1F [Compound A-5]
good to average: Pyrenophora teres; 500 g/ha | Septoria tritici

O=C(NCCc1ncc(C(F)(F)F)cc1Cl)c1ccc(Cl)cc1Cl [Compound A-6]
good to average: Alternaria brassicae; 500 g/ha | Pyrenophora teres; 500 g/ha | Septoria tritici

COc1ccccc1C(=O)NCCc1ncc(C(F)(F)F)cc1Cl [Compound A-7]
good to average: Alternaria brassicae; 500 g/ha | Botrytis cinerea; 500 g/ha | Pyrenophora teres; 500 g/ha | Septoria tritici

Cc1ccccc1C(=O)NCCc1ncc(C(F)(F)F)cc1Cl [Compound A-9]
good to average: Alternaria brassicae; 500 g/ha | Botrytis cinerea; 500 g/ha | Pyrenophora teres; 500 g/ha

COc1ccc(C(=O)NCCc2ncc(C(F)(F)F)cc2Cl)cc1 [Compound A-16]
good to average: Septoria tritici

O=C(NCCc1ncc(C(F)(F)F)cc1Cl)c1ccccc1C(F)(F)F [Compound A-20]
good to average: Alternaria brassicae; 250 g/ha | Alternaria brassicae; 330 ppm | Alternaria brassicae; 500 g/ha | Botrytis cinerea; 250 g/ha | Botrytis cinerea; 330 ppm | Botrytis cinerea; 500 g/ha | Pyrenophora teres; 250 g/ha | Pyrenophora teres; 330 ppm | Pyrenophora teres; 500 g/ha | Septoria tritici

CCc1ccc(C(=O)NCCc2ncc(C(F)(F)F)cc2Cl)cc1 [Compound A-21]
good to average: Septoria tritici

CCCc1ccc(C(=O)NCCc2ncc(C(F)(F)F)cc2Cl)cc1 [Compound A-22]
good to average: Septoria tritici

CCCCc1ccc(C(=O)NCCc2ncc(C(F)(F)F)cc2Cl)cc1 [Compound A-23]
good to average: Septoria tritici

O=C(NCCc1ncc(C(F)(F)F)cc1Cl)c1c(F)cccc1F [Compound A-25]
good to average: Alternaria brassicae; 500 g/ha | Botrytis cinerea; 500 g/ha | Pyrenophora teres; 500 g/ha | Septoria tritici

O=C(NCCc1ncc(C(F)(F)F)cc1Cl)c1ccccc1I [Compound A-45]
good to average: Alternaria brassicae; 250 g/ha | Alternaria brassicae; 330 ppm | Botrytis cinerea; 250 g/ha | Botrytis cinerea; 330 ppm | Pyrenophora teres; 250 g/ha | Pyrenophora teres; 330 ppm

O=C(NCCc1ncc(C(F)(F)F)cc1Cl)c1ccccc1Br [Compound A-46]
good to average: Alternaria brassicae; 250 g/ha | Alternaria brassicae; 330 ppm | Botrytis cinerea; 250 g/ha | Botrytis cinerea; 330 ppm | Pyrenophora teres; 250 g/ha | Pyrenophora teres; 330 ppm

O=C(NCCc1ncc(C(F)(F)F)cc1Cl)c1ccc(F)cc1C(F)(F)F [Compound A-73]
good to average: Alternaria brassicae; 250 g/ha | Alternaria brassicae; 330 ppm | Botrytis cinerea; 250 g/ha | Botrytis cinerea; 330 ppm | Pyrenophora teres; 250 g/ha | Pyrenophora teres; 330 ppm

O=C(NCCc1ncc(C(F)(F)F)cc1Cl)c1c(F)cccc1C(F)(F)F [Compound A-173]
good to average: Alternaria brassicae; 250 g/ha | Alternaria brassicae; 330 ppm | Botrytis cinerea; 330 ppm | Pyrenophora teres; 330 ppm

O=C(NCCc1ncc(C(F)(F)F)cc1Cl)c1c(F)cccc1I [Compound A-174]
good to average: Alternaria brassicae; 330 ppm | Botrytis cinerea; 330 ppm | Pyrenophora teres; 330 ppm

O=C(NCCc1ncc(C(F)(F)F)cc1Cl)c1ccccc1OC(F)F [Compound A-187]
good to average: Alternaria brassicae; 330 ppm | Botrytis cinerea; 330 ppm | Pyrenophora teres; 330 ppm
